Patent US9458213B2, “Compositions and methods for diagnosing prostate cancer based on detection of SLC45A3-ELK4 fusion transcript” (CORNELL UNIVERSITY, priority 2009, dated 2016)

Legend:
[1] = system: endogenous ELK4 mRNA in LNCaP cells; assay: Hormonal treatment of LNCaP cells, quantitative RT-PCR (TAQMAN) of endogenous ELK4; type: cell-based, human
Protocol: (§1) FIGS. 4a-4c. Androgen stimulation of LNCaP cells and induction of SLC45A3-ELK4 (FIG. 4a), endogenous ELK4 (FIG. 4b) mRNA and KLK3 (PSA) mRNA (FIG. 4c). Bar charts are the average fold induction in LNCaP cells treated with 1nM R1881 in the absence (black bars) or presence (gray bars) of 10 μM flutamide at the indicated time points. For flutamide treatment cells were pre-treated 2 hours with 10 μM flutamide, medium was removed and the fresh medium plus 1 nM R1881 plus 10 μM flutamide were given for the indicated time points. All experiments were run in triplicates (standard deviation indicated by the error bars).
(§2) Quantitative RT-PCR using TAQMAN technology. To quantify SLC45A3-ELK4 and endogenous ELK4 transcripts, custom designed primers and probes (SLC45A3-ELK4: primers in SLC45A3 exon 1 and ELK4 exon 2, probe in ELK4 exon 2) were employed in (ELK4, Hs00360812_m1) TAQMAN Gene Expression Assays (Applied Biosystems, Foster City, Calif.) for improved sensitivity and specificity of detection. […] Each target was run in triplicate and expression levels were calculated using the comparative Ct method (ABI Bulletin 2, Applied Biosytems) with TCFL1 as a reference gene and given as fold change over the average expression levels of benign samples. […]

[2] = system: SLC45A3-ELK4 mRNA in LNCaP cells; assay: Hormonal treatment of LNCaP cells, quantitative RT-PCR (TAQMAN) of SLC45A3-ELK4 fusion transcript; type: cell-based, human
Protocol: as §1, §2

[3] = LNCaP cells treated with R1881 (summary statement)
[4] = LNCaP cells, R1881 1 nM, twelve hours following treatment

C[C@]1(O)CC[C@H]2[C@@H]3CCC4=CC(=O)CCC4=C3C=C[C@@]21C [R1881]
regulation of endogenous ELK4 mRNA upon treatment [1, 3]: not endogenous ELK4 mRNA, was up-regulated | change in ELK4 (assay not targeting the fusion transcript) [1, 4]: no change | regulation of SLC45A3-ELK4 mRNA upon treatment [2, 3]: up-regulated | induction of SLC45A3-ELK4 [2, 4]: 25 fold
